Species on record: Rattus norvegicus
Experiment: Open TG-GATES - Regimen: Single
Type: toxicity, organism-based, Sprague-Dawley
Design: regimen Single, gender Male, age 6 weeks
Conditions: in vivo, po, 300 mg/kg, route gavage, dose level Low; for APTT / Bas / Eos / Fbg / Hb / Ht / Lym / MCH / MCHC / MCV / Mono / Neu / PT / Plat / RBC / Ret / WBC: tissue Blood; for KIDNEY_L / KIDNEY_R / KIDNEY_TOTAL: tissue Kidney; for LIVER: tissue Liver; for A/G / ALP / ALT / AST / BUN / CRE / Ca / Cl / DBIL / GLC / IP / K / LDH / Na / PL / RALB / TBIL / TC / TG / TP / gamma-GTP: tissue Plasma

CCOc1ccc(NC(=O)CC(C)O)cc1 (configuration not stated) [BUCETIN]
TERMINAL_BW (3 h): 213.6 g | APTT (3 h): 15.8 s | Bas (3 h): 0% | Eos (3 h): 0.8% | Fbg (3 h): 292.8 mg/dL | Hb (3 h): 13 g/dL | Ht (3 h): 39% | Lym (3 h): 77.8% | MCH (3 h): 21.4 pg | MCHC (3 h): 33.3% | MCV (3 h): 64.3 fL | Mono (3 h): 2.6% | Neu (3 h): 18.2% | PT (3 h): 13.7 s | Plat (3 h): 117.1 x10_4/uL | RBC (3 h): 608.2 x10_4/ul | Ret (3 h): 8.5% | WBC (3 h): 68.4 x10_2/uL | KIDNEY_L (3 h): 1 g | KIDNEY_R (3 h): 1 g | KIDNEY_TOTAL (3 h): 1.9 g | LIVER (3 h): 9.6 g | A/G (3 h): 0.9 | ALP (3 h): 1395.4 IU/L | ALT (3 h): 33.2 IU/L | AST (3 h): 66.8 IU/L | BUN (3 h): 9.4 mg/dL | CRE (3 h): 0.2 mg/dL | Ca (3 h): 10.7 mg/dL | Cl (3 h): 104.8 meq/L | DBIL (3 h): 0.026 mg/dL | GLC (3 h): 181 mg/dL | IP (3 h): 9.1 mg/dL | K (3 h): 4.2 meq/L | LDH (3 h): 73.8 IU/L | Na (3 h): 140.6 meq/L | PL (3 h): 155.2 mg/dL | RALB (3 h): 2.5 g/dL | TBIL (3 h): 0.052 mg/dL | TC (3 h): 84.4 mg/dL | TG (3 h): 78 mg/dL | TP (3 h): 5.4 g/dL | gamma-GTP (3 h): 1.2 IU/L | TERMINAL_BW (6 h): 209.9 g | APTT (6 h): 15.2 s | Bas (6 h): 0% | Eos (6 h): 1% | Fbg (6 h): 292.4 mg/dL | Hb (6 h): 13.4 g/dL | Ht (6 h): 40.3% | Lym (6 h): 77% | MCH (6 h): 20.7 pg | MCHC (6 h): 33.4% | MCV (6 h): 62 fL | Mono (6 h): 2.6% | Neu (6 h): 19% | PT (6 h): 13.6 s | Plat (6 h): 112.6 x10_4/uL | RBC (6 h): 649.8 x10_4/ul | Ret (6 h): 7.8% | WBC (6 h): 80.5 x10_2/uL | KIDNEY_L (6 h): 0.9 g | KIDNEY_R (6 h): 0.9 g | KIDNEY_TOTAL (6 h): 1.8 g | LIVER (6 h): 8.7 g | A/G (6 h): 0.9 | ALP (6 h): 1309.2 IU/L | ALT (6 h): 29.8 IU/L | AST (6 h): 65.8 IU/L | BUN (6 h): 8 mg/dL | CRE (6 h): 0.2 mg/dL | Ca (6 h): 10.6 mg/dL | Cl (6 h): 105 meq/L | DBIL (6 h): 0.026 mg/dL | GLC (6 h): 186 mg/dL | IP (6 h): 10.5 mg/dL | K (6 h): 4.3 meq/L | LDH (6 h): 74.4 IU/L | Na (6 h): 141.8 meq/L | PL (6 h): 139.8 mg/dL | RALB (6 h): 2.5 g/dL | TBIL (6 h): 0.058 mg/dL | TC (6 h): 77 mg/dL | TG (6 h): 44.8 mg/dL | TP (6 h): 5.3 g/dL | gamma-GTP (6 h): 1.2 IU/L | TERMINAL_BW (9 h): 206.6 g | APTT (9 h): 18.5 s | Bas (9 h): 0% | Eos (9 h): 1% | Fbg (9 h): 291.8 mg/dL | Hb (9 h): 13.1 g/dL | Ht (9 h): 39.5% | Lym (9 h): 77.2% | MCH (9 h): 20.9 pg | MCHC (9 h): 33.3% | MCV (9 h): 62.8 fL | Mono (9 h): 2% | Neu (9 h): 19.6% | PT (9 h): 14.3 s | Plat (9 h): 110.2 x10_4/uL | RBC (9 h): 628.8 x10_4/ul | Ret (9 h): 8.1% | WBC (9 h): 59.9 x10_2/uL | KIDNEY_L (9 h): 0.9 g | KIDNEY_R (9 h): 0.9 g | KIDNEY_TOTAL (9 h): 1.9 g | LIVER (9 h): 8.1 g | A/G (9 h): 0.9 | ALP (9 h): 1396.8 IU/L | ALT (9 h): 31 IU/L | AST (9 h): 68.4 IU/L | BUN (9 h): 8.4 mg/dL | CRE (9 h): 0.2 mg/dL | Ca (9 h): 10.4 mg/dL | Cl (9 h): 107.2 meq/L | DBIL (9 h): 0.028 mg/dL | GLC (9 h): 182 mg/dL | IP (9 h): 10.3 mg/dL | K (9 h): 4.3 meq/L | LDH (9 h): 68.6 IU/L | Na (9 h): 142.8 meq/L | PL (9 h): 136.8 mg/dL | RALB (9 h): 2.5 g/dL | TBIL (9 h): 0.062 mg/dL | TC (9 h): 77.2 mg/dL | TG (9 h): 29.2 mg/dL | TP (9 h): 5.4 g/dL | gamma-GTP (9 h): 1.2 IU/L | TERMINAL_BW (24 h): 223.3 g | APTT (24 h): 19.1 s | Bas (24 h): 0% | Eos (24 h): 1% | Fbg (24 h): 303 mg/dL | Hb (24 h): 13.3 g/dL | Ht (24 h): 40% | Lym (24 h): 76.8% | MCH (24 h): 20.9 pg | MCHC (24 h): 33.3% | MCV (24 h): 62.9 fL | Mono (24 h): 3.4% | Neu (24 h): 18.4% | PT (24 h): 14.2 s | Plat (24 h): 121.5 x10_4/uL | RBC (24 h): 636.4 x10_4/ul | Ret (24 h): 7.7% | WBC (24 h): 109.1 x10_2/uL | KIDNEY_L (24 h): 1 g | KIDNEY_R (24 h): 1 g | KIDNEY_TOTAL (24 h): 1.9 g | LIVER (24 h): 10.8 g | A/G (24 h): 0.9 | ALP (24 h): 1683.6 IU/L | ALT (24 h): 38.8 IU/L | AST (24 h): 67 IU/L | BUN (24 h): 15.4 mg/dL | CRE (24 h): 0.2 mg/dL | Ca (24 h): 11.1 mg/dL | Cl (24 h): 104.8 meq/L | DBIL (24 h): 0.02 mg/dL | GLC (24 h): 176.6 mg/dL | IP (24 h): 7.7 mg/dL | K (24 h): 4.1 meq/L | LDH (24 h): 62.6 IU/L | Na (24 h): 143.8 meq/L | PL (24 h): 171.2 mg/dL | RALB (24 h): 2.7 g/dL | TBIL (24 h): 0.05 mg/dL | TC (24 h): 89.2 mg/dL | TG (24 h): 112.8 mg/dL | TP (24 h): 5.7 g/dL | gamma-GTP (24 h): 1 IU/L

From ChEMBL document CHEMBL3885861, “Open TG-GATES”
